The text below walks through data of patent US9421175B2, “Prevention of retinopathy by inhibition of the visual cycle” (priority 2004, dated 2016).

Holding throughout (format): in vivo, rat
The subject of data set [1] is Sprague-Dawley rats. In words: Resistance to retinal ischemia 18 h after intraperitoneal isotretinoin (scotopic ERG 1 week later). The method, then: Purpose: To evaluate the efficacy of isotretinoin in the prevention of retinal functional loss following 1 h ischemia induced by elevation of the intraocular pressure beginning 18 h after the intraperitoneal administration of isotretinoin.
(§1) Material and methods: Intraperitoneal isotretinoin 5 mg/kg in dimethyl sulfoxide (DMSO) was given to 6 Sprague-Dawley rats 18 h before intraocular pressure elevation during general anesthesia using cannulation of the anterior chamber in one eye and infusion of balanced saline solution at a pressure of 110 mmHg. The fellow eye was not subjected to ischemia. The animals were kept in ambient room light before and during ischemia. Retinal function was assessed 1 week later by scotopic and mesopic full-field electroretinography (ERG). The study adhered to the ARVO resolution on animal welfare.

For data set [2], the system named is Sprague-Dawley rats. In words: Resistance to retinal ischemia 1 h after intraperitoneal isotretinoin (scotopic ERG 1 week later). To be noted: isotretinoin 5 mg/kg i.p. in DMSO 1 h before 1 h ischemia (IOP 110 mmHg), 5 treated rats. How it is done: Purpose: To evaluate the efficacy of isotretinoin in the prevention of retinal functional loss following 1 h of ocular ischemia induced by elevation of the intraocular pressure beginning 1 h after the intraperitoneal administration of isotretinoin.
as §1, with “Of 12 Sprague-Dawley rats, 7 received intraperitoneal saline injection and 5 received intraperitoneal” for “Intraperitoneal”, “1” for “was given to 6 Sprague-Dawley rats 18”, “full anaesthesia” for “general anesthesia”

Data set [3] has as its system rats. In words: Experimental retinal vein occlusion, blood-retina barrier permeability by vitreous fluorometry. To be noted: i.p. isotretinoin 5 mg/mild in DMSO for five days before examination, 14 days after photocoagulation; 7 rats; p<0.012. How it is done:
Purpose: To assess the effect of isotretinoin on the integrity of the blood-retina barrier in experimental retinal vein occlusion. Material and methods: Occlusion of all retinal veins near the rim of the optic nerve head was induced by laser photocoagulation in 14 rats. Blood-retina barrier permeability was measured using vitreous fluorometry 2 weeks later. In 7 rats, intraperitoneal isotretinoin 5 mg/mild in dimethyl sulfoxide (DMSO) was administered for five days before the examination of vascular leakage 14 days after photocoagulation. The study adhered to the ARVO resolution on animal welfare.

Data set [4] concerns rats. The data set can be described thus: Retinal vessel diameter after intravitreal isotretinoin (digital fundus photography). Conditions: single intravitreal injection of isotretinoin 2.5 μg in 10 μl DMSO; 6 h later, dark adapted; 4 eyes; SD 4.2%; p=0.04 vs placebo. The method, then:
Purpose: To assess the effect of intravitreal isotretinoin on retinal vessel diameters in rats, the vein diameter acting as a marker of retinal flow and metabolism.
Methods: In 6 animals, one eye received a single intravitreal injection of isotretinoin 2.5 μg in 10 μl dimethyl sulfoxide (DMSO). The fellow eye received a placebo injection of 10 μl DMSO. Retinal vessel diameter was recorded 6 h later in both eyes after the rats had dark adapted using digital fundus photography in red illumination and assessed using computerized image analysis. All procedures were performed in general anesthesia and the study adhered to the ARVO resolution on animal welfare.

Turning to `CC1=C(/C=C/C(C)=C/C=C/C(C)=C\C(=O)O)C(C)(C)CCC1` [isotretinoin, 13-cis-retinoic acid], the “eyes subjected to ischemia with normal scotopic ERG amplitudes” value in the data set with Sprague-Dawley rats [1] (isotretinoin 5 mg/kg i.p. in DMSO 18 h before 1 h ischemia (IOP 110 mmHg), ERG 1 week later, 6 treated rats) came out at 6 eyes. Further, the “scotopic ERG amplitudes” value with Sprague-Dawley rats [1] (isotretinoin 5 mg/kg i.p. in DMSO 18 h before 1 h ischemia, eyes subjected to ischemia, 1 week after ischemia) is 60-120 μV. Further, in the data set with Sprague-Dawley rats [2], the “animals with flat ERG, of 5 eyes subjected to ischemia” value was determined as 2 animals and the “animals with intact scotopic ERG, of 5 eyes subjected to ischemia” value came out at 3 animals. Further, the “retinal vascular leakage compared to untreated animals” value with rats [3] is “lower”. Also, in the data set with rats [4], the “change in retinal vein diameter” value is −9%.
